The target of the assay is T1, mGlu3 receptor (Homo sapiens, UniProt Q14832).
T1 construct: gene GRM3; recombinant receptor stably expressed in HEK293 cells
Description: FLIPR Ca2+ mobilization, antagonist mode at glutamate EC80. The class given is cell-based. The source says: FLIPR Ca2+ mobilization, antagonist mode [NT]

T1 sequence (Q14832 23-879): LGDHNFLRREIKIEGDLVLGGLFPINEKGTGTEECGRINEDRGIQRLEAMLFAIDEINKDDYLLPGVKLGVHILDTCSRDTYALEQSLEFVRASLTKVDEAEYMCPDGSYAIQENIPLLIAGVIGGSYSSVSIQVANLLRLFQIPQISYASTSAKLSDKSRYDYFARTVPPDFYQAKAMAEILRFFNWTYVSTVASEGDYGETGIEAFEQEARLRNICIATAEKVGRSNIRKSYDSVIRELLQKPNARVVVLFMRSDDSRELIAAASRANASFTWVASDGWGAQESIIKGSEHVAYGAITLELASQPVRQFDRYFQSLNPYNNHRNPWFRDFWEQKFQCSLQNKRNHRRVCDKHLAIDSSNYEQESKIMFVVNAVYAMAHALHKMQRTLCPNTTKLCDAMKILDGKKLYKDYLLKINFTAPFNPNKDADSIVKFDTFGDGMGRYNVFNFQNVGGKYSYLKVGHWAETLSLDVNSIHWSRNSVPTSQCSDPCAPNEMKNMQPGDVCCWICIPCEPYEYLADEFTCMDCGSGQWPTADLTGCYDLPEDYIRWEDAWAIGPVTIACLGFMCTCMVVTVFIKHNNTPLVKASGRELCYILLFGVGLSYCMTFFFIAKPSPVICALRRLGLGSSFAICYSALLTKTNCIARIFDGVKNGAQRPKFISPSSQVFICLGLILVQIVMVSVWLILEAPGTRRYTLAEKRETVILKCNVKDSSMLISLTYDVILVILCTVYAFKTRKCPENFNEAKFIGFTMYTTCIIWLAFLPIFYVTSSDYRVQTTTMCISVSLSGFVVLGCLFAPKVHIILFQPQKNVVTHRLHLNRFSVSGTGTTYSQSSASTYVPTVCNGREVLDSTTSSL

For ADX92639, the IC50 stood at 17.4 µM.

Broadly, the IC50 is the concentration that gives 50% inhibition. A high value points to weaker potency.

Values taken from article PMC4619332, “Targeting type-2 metabotropic glutamate receptors to protect vulnerable hippocampal neurons against ischemic damage” (Molecular Brain, 2015).
